Target: SARS-CoV-2 E (2E) (Severe acute respiratory syndrome coronavirus 2, UniProt P0DTC4)
Format: cell-based

Chain of SARS-CoV-2 E (2E) (P0DTC4 whole entry, looked up): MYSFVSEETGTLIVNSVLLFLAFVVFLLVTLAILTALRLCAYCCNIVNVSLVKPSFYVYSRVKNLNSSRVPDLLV

## MYSFVSEETGTLIVNSVL [MY18]
  Relative fluorescent intensity of DND-189 dye (proton homeostasis): significantly restores the proton homeostasis
